From US5661160A, “Substituted pyrrolidin-3-yl-alkyl-piperidines” (Merrell Pharmaceuticals Inc., priority 1995, dated 1997)
Structures can show the parent of a compound that is named as a salt.

How the values were obtained:
[1] = target: T1, NK2 receptor (SKLKB82#3 cells) (Bos taurus, UniProt P05363); experiment: Antagonism of NK2 receptor mediated (NKA-induced) phosphatidylinositol turnover in SKLKB82#3 cells; assay type: cell-based; conditions: for NK-2 RECEPTOR -SLOPE: Schild analysis, NKA, mean (95% confidence limits)
T1 construct: expressed in transfected cells; host or cells: SKLKB82#3 cells (mouse B82 fibroblasts, own knowledge)
T1 sequence (P05363 1-384): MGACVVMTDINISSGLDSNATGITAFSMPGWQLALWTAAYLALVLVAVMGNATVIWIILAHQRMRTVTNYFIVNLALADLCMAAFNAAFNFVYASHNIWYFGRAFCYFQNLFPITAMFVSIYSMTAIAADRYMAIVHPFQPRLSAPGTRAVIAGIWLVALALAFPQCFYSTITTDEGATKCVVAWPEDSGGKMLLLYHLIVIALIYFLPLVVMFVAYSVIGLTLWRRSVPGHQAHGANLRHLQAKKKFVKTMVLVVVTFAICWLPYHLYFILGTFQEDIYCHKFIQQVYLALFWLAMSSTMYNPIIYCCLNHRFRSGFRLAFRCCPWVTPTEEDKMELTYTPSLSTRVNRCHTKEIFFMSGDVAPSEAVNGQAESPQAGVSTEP
Experimental: Tachykinin-mediated inositol phosphate accumulation was measured in UC11 or SKLKB82#3 cells in the presence and absence of NK1 or NK2 receptor antagonists, respectively. Tissues were incubated in Krebs-Henseleit buffer at 37° C. with 95% O2 -5% CO2 gassing. Tissues were then incubated with fresh buffer containing 100 μCi of myo-[2-^3 H(N)] inositol at 37° C. for 60 min with gentle gassing. After washing twice in 5 ml room temperature buffer containing 10 mM LiCl, tissues were incubated for 30 min at room temperature with a buffer change at 15 min. Buffer was removed and Krebs-Henseleit buffer (containing 40 μg/ml bacitracin, 4 μg/ml each of leupeptin and chymostatin, 0.1% bovine serum albumin and 10 mM each of thiorphan and LiCl) added. After 15 min, SP was added to UC11 cells or NKA to SKLKB82#3 cells at various concentrations to start the reaction. After incubation for 60 min at room temperature the reaction was terminated by addition of 930 μl chloroform:methanol (1:2 by volume) to each tube, followed by 310 μl chloroform and 310 μl doubly distilled water. Samples were vortexed, centrifuged, and 0.9 ml of the aqueous (top) phase removed and added to 2 ml ddH2 O. The mixture was vortexed and loaded onto a 50% Bio-Rad AG 1-X8 (formate form, 100-200 mesh) exchange column (Bio-Rad Laboratories, Hercules, Calif.). The columns were washed, in order, with: 1) 10 ml doubly distilled water, 2) 5 ml of 5 mM disodium tetraborate/60 mM sodium formate, and 3) 5 ml of 1M ammonium formate/0.1M formic acid. The third elution was collected and 1 ml counted in 7 ml scintillation fluid. A 50 μl aliquot of the organic (bottom) phase was removed, dried in a scintillation vial and counted in 7 ml scintillation fluid.
(§1) The ratio of DPM in the aqueous phase aliquot (total inositol phosphates) to the DPM in the 50 μl organic phase aliquot (total [^3 H]-inositol incorporated) was calculated for each sample. Data are expressed as a percent of agonist-induced accumulation of [^3 H]-inositol phosphates over basal levels. […] Dose-response graphs were constructed and the abilities of the test compounds to inhibit tachykinin-induced phosphatidyinositol turnover determined with the aid of a computer program. […] Data is expressed as percent stimulation of total inositol phosphate accumulation over basal levels and normalized to the maximum response produced by SP. […] Schild analysis is performed using dose response curves (such as those presented in FIGS. 1a and 1b) to obtain a value indicative of the Strength of a competitive antagonist and is expressed as the pA2, which is the negative logarithm of the molar concentration of antagonist which reduces the effect of a dose of agonist to one-half of that expected at the dose of agonist.

[2] = target: T2, NK1 receptor (UC11 cells) (Homo sapiens, UniProt P25103); experiment: Antagonism of NK1 receptor mediated (SP-induced) phosphatidylinositol turnover in UC11 cells; assay type: cell-based
T2 construct: endogenous in cells; host or cells: UC11 cells
Experimental: Tachykinin-mediated inositol phosphate accumulation was measured in UC11 or SKLKB82#3 cells in the presence and absence of NK1 or NK2 receptor antagonists, respectively. Tissues were incubated in Krebs-Henseleit buffer at 37° C. with 95% O2 -5% CO2 gassing. Tissues were then incubated with fresh buffer containing 100 μCi of myo-[2-^3 H(N)] inositol at 37° C. for 60 min with gentle gassing. After washing twice in 5 ml room temperature buffer containing 10 mM LiCl, tissues were incubated for 30 min at room temperature with a buffer change at 15 min. Buffer was removed and Krebs-Henseleit buffer (containing 40 μg/ml bacitracin, 4 μg/ml each of leupeptin and chymostatin, 0.1% bovine serum albumin and 10 mM each of thiorphan and LiCl) added. After 15 min, SP was added to UC11 cells or NKA to SKLKB82#3 cells at various concentrations to start the reaction. […] The third elution was collected and 1 ml counted in 7 ml scintillation fluid. A 50 μl aliquot of the organic (bottom) phase was removed, dried in a scintillation vial and counted in 7 ml scintillation fluid.
as §1

NK1 and NK2 receptors [3] = experiment: Antagonism of capsaicin aerosol-induced respiratory effects in conscious guinea pigs, intravenous; assay type: in vivo, guinea pig; conditions: for SRE NUMBER: coughs/gasps during 19 min capsaicin exposure, mean and SEM; for effect on capsaicin-induced respiratory effects (in words): i.v.
Experimental: (§2) In vivo experiments were performed using male Duncan Hartley guinea pigs (250-350 g). Changes in conscious breathing patterns were monitored in four animals simultaneously using modified whole body plethysmography consisting of four small plexiglass boxes each connected to a reference box via Validyne DP 45-16 differential pressure transducers. The 4 boxes were equipped with an air supply line (also used for aerosol delivery) and an exhaust air line. Supply and exhaust lines were of the same length and narrow bore and arose from a common supply chamber and vented to a common exhaust chamber. This system was used to ensure that fluctuations in supply air and atmospheric pressure would remain in phase and be eliminated from the net signal by the differential pressure transducers. The analog pressure signals were digitalized via a Data Translation DT2821 A to D board. Data were collected at a rate of 100 samples/second/animal. Each cycle of pressure change was analyzed using the following parameters: rising and falling slope determined between minimum and maximum pressures, the ratio of rising over falling slope, and the magnitude of the change between initial trough pressure and peak cycle pressure. Using these values (and observing the animals) the pressure cycles were characterized into normal breaths, forced exhalations (apparent by abdominal heaving), significant respiratory events (SREs; usually coughs, less often sneezes or gasps which were characterized by transient, extremely large pressure increases which were distinguishable from noise) and movement/noise with a PCAT 286 running a System V UNIX operating system. Dyspnea was defined as a significant, sustained increase in plethysmograph pressure which was associated with an observable shift to labored breathing in the animal.
(§3) During the course of a typical experiment in which airway responsiveness to various bronchoconstricting agents was examined, aerosols were delivered for 19 min (0.33 ml/min) using a DeVilbiss Ultraneb 99 ultrasonic nebulizer and animals monitored during this time. Prior to nebulization, 1 min of resting breathing was collected to establish a baseline pressure. […] The vehicle for nebulization of all bronchoconstrictive agents was phosphate buffered saline (pH 7.4) which elicited no respiratory effects itself. Putative tachykinin antagonists were administered either (i.v.) 20 min prior to onset of aerosol exposure or orally 1 hour prior to onset (to guinea pigs after an overnight fast).
(§4) Capsaicin aerosol is known to promote release of the tachykinins SP and NKA from sensory nerves in the airways of guinea pigs which may then act upon NK1 and NK2 receptors, respectively to elicit respiratory effects.

NK1 and NK2 receptors [4] = experiment: Antagonism of capsaicin aerosol-induced respiratory effects in conscious guinea pigs, oral; assay type: in vivo, guinea pig; conditions: for SRE NUMBER: coughs/gasps during 19 min capsaicin exposure, mean and SEM; for effect on capsaicin aerosol effects (in words): oral
Experimental: as §2, §3, §4

NK2 receptor = experiment: Antagonism of NKA aerosol-induced respiratory effects in conscious guinea pigs; assay type: in vivo, guinea pig; conditions: dose dependent
Experimental: as §2
During the course of a typical experiment in which airway responsiveness to various bronchoconstricting agents was examined, aerosols were delivered for 19 min (0.33 ml/min) using a DeVilbiss Ultraneb 99 ultrasonic nebulizer and animals monitored during this time. […]

NK1 receptors = target: T3, NK1 receptors (Cavia porcellus, UniProt P30547); experiment: Antagonism of SP-induced plasma protein extravasation in guinea pig trachea; assay type: in vivo; conditions: for relative potency as NK-1 receptor antagonists (in words): Example 3 versus its (+)-enantiomer Example 20A
T3 construct: measuring Evans Blue dye accumulation in guinea pig trachea; from tissue; host or cells: guinea pig trachea and primary bronchi, whole animal in vivo
Experimental: SP-induced protein leakage through postcapillary venules was assessed by measuring Evans Blue dye accumulation in guinea pig trachea. Animals were anesthetized with pentobarbital then injected with Evans Blue dye (20 mg/kg, i.v., prepared in 0.9% NaCl solution). One minute after dye administration, the antagonist was administered (i.v.) followed by SP (0.3 nmole/kg, i.v.) and, after 5 min, excess dye removed from the circulation by transcardiac perfusion with 50 ml 0.9% NaCl solution. The trachea and primary bronchi were removed, blotted dry and weighed. Dye quantitation was performed spectrophotometrically ([…]) after extracting tissues in formamide for 24 hr at 50° C. Values were subtracted from background (dye only, no agonist). ED50 (dose of compound which inhibits SP-induced plasma protein extravasation by 50%) was calculated from linear regression analysis.

T3 sequence (P30547 whole entry): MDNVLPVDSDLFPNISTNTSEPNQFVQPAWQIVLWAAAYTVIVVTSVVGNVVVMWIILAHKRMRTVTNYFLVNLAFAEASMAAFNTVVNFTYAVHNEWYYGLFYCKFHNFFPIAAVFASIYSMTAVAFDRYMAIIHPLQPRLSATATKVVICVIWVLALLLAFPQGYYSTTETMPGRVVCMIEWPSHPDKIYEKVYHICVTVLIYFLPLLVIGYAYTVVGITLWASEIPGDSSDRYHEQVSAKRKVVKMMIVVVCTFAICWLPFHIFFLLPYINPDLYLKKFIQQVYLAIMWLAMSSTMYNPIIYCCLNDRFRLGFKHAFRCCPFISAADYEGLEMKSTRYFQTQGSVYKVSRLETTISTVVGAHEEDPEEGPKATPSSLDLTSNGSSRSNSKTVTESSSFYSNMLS
T2 sequence (P25103 whole entry): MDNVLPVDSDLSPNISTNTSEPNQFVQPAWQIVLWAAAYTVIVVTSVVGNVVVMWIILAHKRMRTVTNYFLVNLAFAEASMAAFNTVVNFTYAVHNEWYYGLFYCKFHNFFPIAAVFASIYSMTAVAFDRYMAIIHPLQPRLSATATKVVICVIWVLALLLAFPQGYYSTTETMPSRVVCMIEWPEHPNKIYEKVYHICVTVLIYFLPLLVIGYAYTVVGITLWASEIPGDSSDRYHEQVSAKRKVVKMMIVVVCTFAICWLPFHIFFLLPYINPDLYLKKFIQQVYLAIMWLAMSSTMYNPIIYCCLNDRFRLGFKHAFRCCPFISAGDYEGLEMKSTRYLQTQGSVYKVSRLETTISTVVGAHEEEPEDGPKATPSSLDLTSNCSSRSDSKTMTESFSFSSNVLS

SMILES	NK-2 RECEPTOR -SLOPE [1]	SRE NUMBER (NK1 and NK2 receptors [3]; 10 mg/kg i.v.)	effect on capsaicin-induced respiratory effects (in words) (NK1 and NK2 receptors [3])	effect on capsaicin aerosol effects (in words) (NK1 and NK2 receptors [4])	effect on NKA aerosol respiratory effects (in words) (NK2 receptor)	relative potency as NK-1 receptor antagonists (in words) (NK1 receptors)	also measured
COc1cc(C(=O)N2CCC(CCN3CCC(C(N)=O)(c4ccccc4)CC3)(c3ccc(Cl)c(Cl)c3)C2)cc(OC)c1OC (racemic) [Example 3A, 1-[2-[3-(3,4-dichloro-phenyl)-1-(3,4,5-trimethoxy-benzoyl)-pyrrolidin-3-yl]-ethyl]-4-phenyl-piperidine-4-carboxylic acid amide hydrochloride]	0.73	8.50 ± 1.9	attenuate capsaicin-induced respiratory effects	antagonize the effects of capsaicin aerosol			NK-1 RECEPTOR -SLOPE ([2]; Schild analysis, SP, mean (95% confidence limits)): 0.90; SRE NUMBER (NK1 and NK2 receptors [4]; 25 mg/kg oral): 4.6 ± 1.0; SRE NUMBER (NK1 and NK2 receptors [4]; 50 mg/kg oral): 2.8 ± 0.8; SRE NUMBER (NK1 and NK2 receptors [4]; 100 mg/kg oral): 2.1 ± 0.5
COc1cc(C(=O)N2CCC(CCN3CCC(C(N)=O)(c4ccccc4)CC3)(c3ccc(Cl)c(Cl)c3)C2)cc(OC)c1OC.Cl (single isomer, unassigned; (+)) [Example 20A, (+)-1-[2-[3-(3,4-dichloro-phenyl)-1-(3,4,5-trimethoxy-benzoyl)-pyrrolidin-3-yl]-ethyl]-4-phenyl-piperidine-4-carboxylic acid amide hydrochloride]		3.3 ± 1.1	attenuate capsaicin-induced respiratory effects		reduced the effects of NKA aerosol	equipotent	SRE NUMBER (NK1 and NK2 receptors [3]; 1 mg/kg i.v.): 9.9 ± 2.7; SRE NUMBER (NK1 and NK2 receptors [3]; 2.5 mg/kg i.v.): 8.3 ± 1.6; SRE NUMBER (NK1 and NK2 receptors [3]; 5 mg/kg i.v.): 4.4 ± 1.9
COc1cc(C(=O)N2CCC(CCN3CCC(C(N)=O)(c4ccccc4)CC3)(c3ccc(Cl)c(Cl)c3)C2)cc(OC)c1OC (single isomer, unassigned; (+)) [Example 20]	1.00						
COc1cc(C(=O)N2CCC(CCN3CCC(C(N)=O)(c4ccccc4)CC3)(c3ccc(Cl)c(Cl)c3)C2)cc(OC)c1OC (stereo not shown) [Example 3, 1-[2-[3-(3,4-dichloro-phenyl)-1-(3,4,5-trimethoxy-benzoyl)-pyrrolidin-3-yl]-ethyl]-4-phenyl-piperidine-4-carboxylic acid amide]					reduced the effects of NKA aerosol	equipotent	antagonism of NKA induced PI turnover (in words) ([1]; FIG. 1b): dose related antagonism; agonist activity, PI turnover (in words) ([1]; compound alone): no agonist activity; antagonism of SP induced PI turnover (in words) ([2]; FIG. 1a): dose related antagonism; agonist activity, PI turnover (in words) ([2]; compound alone): no agonist activity; antagonism of SP-induced plasma protein extravasation (in words) (NK1 receptors; FIG. 2): dose related antagonism
COc1cccc(OC)c1C(=O)N1CCC(CCN2CCC(C(N)=O)(c3ccccc3)CC2)(c2ccc(Cl)c(Cl)c2)C1 (stereo not shown) [Example 5A, 1-[2-[3-(3,4-dichloro-phenyl)-1-(2,6-dimethoxy-benzoyl)-pyrrolidin-3-yl]-ethyl]-4-phenyl-piperidine-4-carboxylic acid amide hydrochloride]					reduced the effects of NKA aerosol		
COc1cccc(OC)c1C(=O)N1CCC(CCN2CCC(C(N)=O)(c3ccccc3)CC2)(c2ccc(Cl)c(Cl)c2)C1 (stereo not shown) [Example 5]				antagonize the effects of capsaicin aerosol			
